# Measurements: patent publication US20240293318A1, “CLEAVABLE LINKER-CONTAINING IONIZABLE LIPIDS AND LIPID CARRIERS FOR THERAPEUTIC COMPOSITIONS” (Flagship Pioneering Innovations VII, LLC, priority 2023, published 2024)
# How the values were obtained:
# [1] = LNP size and polydispersity index by dynamic light scattering (DLS); type: physicochemical; details: hEPO mRNA, Lipid:Cholesterol:DSPC:PEG-2k 50:38.5:10:1.5, N:P 6
# Excerpt: (§1) Various lipid nanoparticle compositions comprising a nucleic acid payload are characterized by a variety of methods. For example, dynamic light scattering (DLS) is used to determine particle sizes (Wyatt Dynapro Platereader 111). In addition, instruments such as the Zetasizer Nano ZS (Malvern Instruments Ltd) are used to measure multiple physical properties of a lipid nanoparticle composition, such as particle size, polydispersity index (PDI), and zeta potential. Fluorescence-based assays are used to determine the efficiencies of nucleic acid encapsulation in the lipid nanoparticles. Fluorescence-based assays are used to determine the “apparent pKa” of the lipid nanoparticles. Both fluorescence assays are evaluated on a Varioskanlux plate reader (ThermoScientific).
# After formulation and processing of the lipid nanoparticle compositions, the Z-average size of lipid nanoparticle composition are assayed by dynamic light scattering (DLS) (e.g., using a Wyatt Dynapro Platereader III or Malvern Zetasizer ZS). Briefly, an aliquot of 2 uL of the processed nanoparticle composition mixture (at an RNA concentration of approximately 0.5 mg/mL) is diluted into 50 uL phosphate buffered saline (0.1×PBS) and loaded into a 384 well plate. The sample is then analyzed to determine nanoparticle size.
# (§2) LNPs were characterized by dynamic light scattering (DLS) measurement for measuring its hydrodynamic radius and polydispersity index (PDI). Encapsulation efficiency (EE %) and total RNA concentration were quantitated using a fluorescence based Ribogreen assay.
# [2] = Zeta potential assay of LNPs; type: physicochemical; details: LNP, hEPO mRNA, Lipid:Cholesterol:DSPC:PEG-2k 50:38.5:10:1.5, N:P 6
# Excerpt: as §1
# A Zetasizer Nano ZS (Malvern Instruments Ltd) is used to determine the zeta potential of the nanoparticle compositions. Briefly, a 5 uL aliquot of an approximately 0.5 mg mRNA/mL sample is diluted into 800 uL 0.1×PBS. This sample is then transferred to a disposable conducting cuvette and the zeta potential is measured.
# [3] = Encapsulation efficiency, fluorescence based Ribogreen assay; type: physicochemical; details: LNP, hEPO mRNA, Lipid:Cholesterol:DSPC:PEG-2k 50:38.5:10:1.5, N:P 6
# Description: For lipid nanoparticle formulations containing an RNA, a QUANTIT™ RIBOGREEN® RNA assay (Invitrogen Corporation) is used to evaluate the encapsulation of RNA within the lipid nanoparticle formulation.
# The samples are diluted to ˜10 ug/ml in TE buffer. In a 96 well plate, 50 ul of the diluted sample is added to 50 uL TE buffer in duplicates and 20 uL of diluted sample is added to 80 uL Triton X buffer (2% triton in TE buffer) in duplicates. The plate is incubated for 10 minutes at room temperature. Next, RIBOGREEN® is diluted 1:200 in TE BUFFER, and 100 uL is added to each sample well. The fluorescence intensity is measured using a fluorescence plate reader (e.g., Varioskanlux, ThermoScientific) at an excitation wavelength of about 480 nm and an emission wavelength of about 520 nm. The encapsulation efficiency can be determined by using the percentage ratio of non-encapsulated RNA (TE sample) over the total RNA (TX sample), then subtracting from 100 to find the percentage of encapsulated RNA amount.
# as §2
# [4] = Apparent pKa of LNPs (TNS assay); type: physicochemical; details: LNP, hEPO mRNA, Lipid:Cholesterol:DSPC:PEG-2k 50:38.5:10:1.5, N:P 6
# Excerpt: as §1
# The apparent pKa of lipid nanoparticle composition is measured using a 6-(p-Toluidino)-2-naphthalenesulfonic acid (TNS) assay. Briefly, lipid nanoparticles (10 uL of approximately 0.5 mg mRNA/mL) and TNS probe (40 uL of 1 mM stock) are added to 750 uL of TNS buffer (25 mM citric acid, 20 mM sodium phosphate, 150 mM NaCl, and 20 mM ammonium acetate), at a pH ranging from 2 to 10. 20 uL of each sample are added to 80 uL of buffer at each pH in a 96-well plate. The plate is incubated for 10 minutes, and the fluorescence signal is measured by means of a spectrofluorometer (Varioskanlux, ThermoScientific) with excitation/emission settings of λex=321 nm, and λem=445 nm. The apparent pKa of the nanoparticle composition is determined by deriving the pH at which 50% of the pH 2 fluorescent signal is present. All datapoints are normalized to the fluorescent signal at pH 2.
# [5] = system: C57BL/6 female mice; assay: In vivo hEPO expression of hEPO mRNA LNPs, serum ELISA; details: LNP 50:38.5:10:1.5, N:P 6, 0.2 mg/kg hEPO mRNA, tail vein injection, blood serum 6 h post-administration
# Description: In this example, messenger RNA molecules encoding hEPO proteins were formulated in lipid nanoparticles for delivery in vivo. The lipid nanoparticle (LNP) formulations comprised of a lipid composition of ionizable lipid: helper lipid: cholesterol. DMG-PEG2k at 50:10:38.5:1.5 mol %. The lipid mixture in ethanol was mixed with hEPO mRNA in RNA acidifying buffer (10 mM citrate, pH 4) at an ionizable-lipid-nitrogen-to-RNA-phosphate ratio (N:P) of 6 using a microfluidic device (Precision NanoSystems, Inc.) at a combined flow rate of 10 mL/min (7.5 mL/min for aqueous buffer, RNA and 2.5 mL/min for ethanol, lipid mix). The resulting particles were neutralized by buffer exchange into Dulbecco's phosphate buffer solution via PD-10 desalting column. The neutralized particles were concentrated using 100 kDa AMICON® Ultra centrifugal filters and sterile filtered using 0.2 um syringe filters. Samples were then characterized and diluted as needed (3 replicates).
# The in vivo studies were performed in C57BL/6 female mice at 6 to 8 weeks weighing in at approximately 20 g. The LNPs formulated with different ionizable lipids at 0.2 mg/kg of hEPO mRNA were administered by tail vein injection and animals were euthanized at 6 h post-administration for blood serum sample collection. The hEPO levels from the samples were analyzed and cross-compared by enzyme-linked immunoassay (ELISA) according to manufacturer's protocol. The hEPO expression levels for each of the LNPs was compared to a control LNP comprising SM102 (DC Chemicals Cat. No. DC52025). (FIG. 1).
Compound,PDI [1],Size [1] [nm],Zeta [2] [mV],EE [3] [%],pKa [4],hEPO [5] [ng/mL]
CCCCCCCCC(CC)OC(=O)CCCCCCCN(CCCCCCCC(=O)OC(CCCCCCCC)CCCCCCCC)CCCNS(=O)(=O)N(C)C (stereo not drawn) [Lipid 20],0.162,58.6,−14.5,95.2,6.6,361.46
CCCCCCCCC(CC)OC(=O)CCCCCCCN(CCCCCCCC(=O)OC(CCCCCCCC)CCCCCCCC)CCCn1nc(N)nc1N (stereo not drawn) [Lipid 21],0.277,83.3,−12.3,96.4,6.5,0.00
CCCCCCCCCCCOC(=O)CCCCCN(CCO)CCCCCCCOP(=O)(NCCCCCCCC)OCCCCCCCC (stereo not drawn) [Lipid 8],0.302,134.7,0.1,94.2,7.0,93.09
CCCCCCCCCCCCOC(=O)CCN(CCO)CCCCCCCC(=O)OC(CCCCCCCC)CCCCCCCC [Lipid 3],0.48,62.8,−9.2,97.6,5.1,0.00
CCCCCCCCCCCNP(=O)(OCC)OCCCCCN(CCO)CCCCCCCOP(=O)(NCCCCCCCCC)OCCCCCCCCC (stereo not drawn) [Lipid 12],0.316,87.6,3.5,99.3,8.3,0.00
CCCCCCCCCCCOC(=O)CCCCCN(CCO)CCCCCCCNP(=O)(OCCCCCCCC)OCCCCCCCC [Lipid 6],0.227,132.7,−0.4,95.8,6.9,304.28
CCCCCCCCCCCOC(=O)CCN(CCO)CCCCCCCC(=O)OC(CCCCCCCC)CCCCCCCC [Lipid 4],0.103,56.2,−9.3,97.5,5.1,0.00
CCCCCCCCCCCCCOC(=O)CCN(CCO)CCCCCCCC(=O)OC(CCCCCCCC)CCCCCCCC [Lipid 2],0.399,68.8,0.1,97.9,5.1,0.00
CCCCCCCCCNP(=O)(OCCCCCCCCC)OCCCCCCCN(CCO)CCCCCOP(=O)(NCCCCCCCCC)OCCCCCCCCC (stereo not drawn) [Lipid 13],0.108,67.1,2.4,96.7,7.8,49.71
CCCCCCCCCCCOC(=O)CCCCCN(CCO)CCCCCCCNP(=O)(OCCCCCCCCC)OCCCCCCCCC [Lipid 5],0.358,87.4,−1.0,95.3,6.8,114.89
